In brackets after ≈: the same amount, converted by molar mass.
Key:
[1] = system: L. donovani axenic amastigotes; assay: L. donovani axenic amastigote proliferation, colorimetric assay; type: cell-based, Leishmania donovani; conditions: for activity in the axenic amastigote L. donovani assay (in words): screening / confirmation; for IC50: Leishmania donovani, L. donovani axenic amastigotes
Protocol: As part of an ongoing search for potential treatments for leishmaniasis, a screening campaign against available compounds was conducted using axenic amastigotes of Leishmania donovani, a protozoan that is known to cause visceral leishmaniasis (VL). […] Prior to taking on the development of novel analogs, we sought to synthesize an analog to confirm that the activity was readily reproducible. […] As a byproduct, compound 2a, which arose from the hydrolysis of the product amide to the corresponding carboxylic acid (not shown) was also isolated and evaluated (vide infra).
(§1) With a source of these compounds in hand, their activity against Leishmania donovani cells was evaluated in two different assays. L. donovani axenic amastigotes were generated from promastigotes and maintained in an appropriate medium such that their proliferation could be evaluated using a colorimetric assay. Additionally, macrophages were plated into a 96-well plate and a medium containing L. donovani was added and allowed to infect the macrophage cells. Subsequent addition of the compound to be evaluated was added to the wells prior to incubation and evaluation. Finally, a counterscreen for cytotoxicity was conducted using a J774 murine mouse cell line.

[2] = system: L. donovani infected macrophage cells; assay: L. donovani infected macrophage assay; type: cell-based; conditions: Leishmania donovani, macrophages infected with L. donovani
Protocol: as §1

[3] = Counterscreen for cytotoxicity; type: cell-based; conditions: mouse, J774 cells (murine macrophage cell line)
Protocol: as §1

Row | SMILES | IC50 [1] | activity in the axenic amastigote L. donovani assay (in words) [1] | IC50 [2] | IC50 [3]
1 | Cc1nn(-c2ccc(C(N)=O)c(N[C@H]3CC[C@H](O)CC3)c2)c2c1C(=O)CC(C)(C)C2 [Compound 1, reference compound] |  | most active |  | 
2 | COCCCNc1cc(-n2nc(C)c3c2CN(Cc2ccccc2)CC3=O)ccc1C(N)=O [Compound 3a] | 2.29 mg/L (≈ 5.11 µM) |  | 6.33 mg/L (≈ 14.1 µM) | > 50 mg/L
3 | COCCCNc1cc(-n2nc(C)c3c2CN(C(=O)COC)CC3=O)ccc1C(N)=O [Compound 3f] | 4.45 mg/L (≈ 10.4 µM) |  | 3.57 mg/L (≈ 8.31 µM) | > 50 mg/L
4 | COCCCNc1cc(-n2nc(C)c3c2CN(C(=O)C2CCCC2)CC3=O)ccc1C(N)=O [Compound 3g] | 2.99 mg/L (≈ 6.59 µM) |  | 1.52 mg/L (≈ 3.36 µM) | > 50 mg/L
5 | COCCCNc1cc(-n2nc(C)c3c2CN(C(=O)c2ccc(C)cc2)CC3=O)ccc1C(N)=O [Compound 3h] | 2.6 mg/L (≈ 5.48 µM) |  | 1.75 mg/L (≈ 3.69 µM) | 26.3 mg/L (≈ 55.3 µM)
6 | COCCCNc1cc(-n2nc(C)c3c2CN(C(=O)NCc2ccccc2)CC3=O)ccc1C(N)=O [Compound 3j] | > 20 mg/L |  | > 10 mg/L | > 50 mg/L
7 | COCCCNc1cc(NC2CC(C)(C)Cc3ncccc32)ccc1C(N)=O (centres unmarked) [Compound 6] | 2.55 mg/L (≈ 6.67 µM) |  | 5.38 mg/L (≈ 14.1 µM) | 6.75 mg/L (≈ 17.6 µM)
8 | Cc1nn(-c2ccc3c(N)ncnc3c2)c2c1C(=O)CC(C)(C)C2 [Compound 9c] | 2.42 mg/L (≈ 7.53 µM) |  | 1.33 mg/L (≈ 4.15 µM) | > 50 mg/L

The next lines start with results.

Row | IC50 [1] | SMILES | activity in the axenic amastigote L. donovani assay (in words) [1] | IC50 [2] | IC50 [3]
9 | 0.646 mg/L (≈ 1.68 µM) | COCCCNc1cc(-n2nc(C)c3c2CC(C)(C)CC3=O)ccc1C(N)=O [Compound 2] | equally active as 1 | 0.879 mg/L (≈ 2.29 µM) | 3.52 mg/L (≈ 9.16 µM)
10 | 3.9 mg/L (≈ 10.9 µM) | COCCCNc1cc(-n2nc(C)c3c2CNCC3=O)ccc1C(N)=O [Compound 3b] |  | > 10 mg/L | > 50 mg/L
11 | 13.9 mg/L (≈ 34.8 µM) | COCCCNc1cc(-n2nc(C)c3c2CN(C(C)=O)CC3=O)ccc1C(N)=O [Compound 3c] |  | 1.06 mg/L (≈ 2.65 µM) | > 50 mg/L
12 | 6.42 mg/L (≈ 15.5 µM) | CCC(=O)N1CC(=O)c2c(C)nn(-c3ccc(C(N)=O)c(NCCCOC)c3)c2C1 [Compound 3d] |  | 3.54 mg/L (≈ 8.55 µM) | > 50 mg/L
13 | 1.9 mg/L (≈ 4.45 µM) | COCCCNc1cc(-n2nc(C)c3c2CN(C(=O)C(C)C)CC3=O)ccc1C(N)=O [Compound 3e] |  | 3.54 mg/L (≈ 8.28 µM) | 37.3 mg/L (≈ 87.3 µM)
14 | > 20 mg/L | COCCCNc1cc(-n2nc(C)c3c2CN(S(C)(=O)=O)CC3=O)ccc1C(N)=O [Compound 3i] |  | > 5.38 mg/L | 25.5 mg/L (≈ 58.6 µM)
15 | > 20 mg/L | COCCCNc1cc(-n2nc(C)c3c2CN(C(N)=O)CC3=O)ccc1C(N)=O [Compound 3k] |  | > 10 mg/L | > 50 mg/L
16 | 2.65 mg/L (≈ 7.45 µM) | COCCCNc1cc(-n2nc(C)c3c2CCCC3=O)ccc1C(N)=O [Compound 10] |  | 0.65 mg/L (≈ 1.82 µM) | 12.6 mg/L (≈ 35.2 µM)
